Results as given in ChEMBL document CHEMBL3991601, “The target landscape of clinical kinase drugs” (Science, 2017).
The source made the active and inactive calls. Rule as the data show it, for most assays here: actives have a measured Kd and inactives only a lower limit.

Assays:
[1] = molecular target: Tyrosine-protein kinase ABL2 (Homo sapiens, UniProt P42684)
[2] = molecular target: Cyclin-dependent kinase 13 (Homo sapiens, UniProt Q14004)
Ephrin type-A receptor 2 = Ephrin type-A receptor 2 (Homo sapiens, UniProt P29317)
Ephrin type-B receptor 4 = molecular target: T1, Ephrin type-B receptor 4 (Homo sapiens, UniProt P54760)
T1 sequence (P54760 whole entry): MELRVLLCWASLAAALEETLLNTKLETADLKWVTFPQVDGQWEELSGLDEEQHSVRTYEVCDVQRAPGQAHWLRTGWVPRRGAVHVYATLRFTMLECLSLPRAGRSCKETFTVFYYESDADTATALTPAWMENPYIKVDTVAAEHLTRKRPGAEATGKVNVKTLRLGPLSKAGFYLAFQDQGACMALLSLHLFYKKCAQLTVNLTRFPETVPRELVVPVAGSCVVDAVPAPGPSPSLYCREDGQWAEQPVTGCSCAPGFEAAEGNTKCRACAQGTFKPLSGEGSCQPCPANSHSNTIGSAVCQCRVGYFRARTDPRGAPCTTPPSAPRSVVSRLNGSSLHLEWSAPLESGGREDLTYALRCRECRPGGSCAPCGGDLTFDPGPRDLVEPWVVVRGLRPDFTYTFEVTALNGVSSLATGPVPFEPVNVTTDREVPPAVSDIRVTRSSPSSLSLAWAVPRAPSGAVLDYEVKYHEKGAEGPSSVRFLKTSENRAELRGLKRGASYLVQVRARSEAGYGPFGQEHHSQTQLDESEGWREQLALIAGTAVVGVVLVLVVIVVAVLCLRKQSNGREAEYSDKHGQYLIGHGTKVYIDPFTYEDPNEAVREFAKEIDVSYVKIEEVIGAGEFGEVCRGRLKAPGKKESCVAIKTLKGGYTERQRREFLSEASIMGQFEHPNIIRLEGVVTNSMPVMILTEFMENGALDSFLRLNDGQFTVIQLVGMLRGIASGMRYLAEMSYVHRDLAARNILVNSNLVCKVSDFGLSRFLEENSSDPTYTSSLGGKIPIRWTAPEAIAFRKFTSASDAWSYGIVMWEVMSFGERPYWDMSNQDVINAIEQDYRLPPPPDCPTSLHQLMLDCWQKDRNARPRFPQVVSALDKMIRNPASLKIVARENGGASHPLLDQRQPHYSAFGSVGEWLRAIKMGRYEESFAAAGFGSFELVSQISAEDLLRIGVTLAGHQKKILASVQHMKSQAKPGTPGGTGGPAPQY

[3] = molecular target: Putative heat shock protein HSP 90-beta 2 (Homo sapiens, UniProt Q58FF8)
Sequence of Putative heat shock protein HSP 90-beta 2 (Q58FF8 whole entry): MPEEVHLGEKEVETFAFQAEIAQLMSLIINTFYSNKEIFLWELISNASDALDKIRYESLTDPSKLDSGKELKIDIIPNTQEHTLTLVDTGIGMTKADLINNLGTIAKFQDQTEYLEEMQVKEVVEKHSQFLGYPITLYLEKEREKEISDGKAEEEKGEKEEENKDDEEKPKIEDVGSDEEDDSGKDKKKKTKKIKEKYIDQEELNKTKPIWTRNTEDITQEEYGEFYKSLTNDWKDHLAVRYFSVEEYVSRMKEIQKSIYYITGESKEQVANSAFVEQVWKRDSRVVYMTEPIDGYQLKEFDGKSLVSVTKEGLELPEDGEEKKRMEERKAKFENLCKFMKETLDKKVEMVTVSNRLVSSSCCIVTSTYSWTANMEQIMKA

[4] = molecular target: Interleukin-1 receptor-associated kinase 1 (Homo sapiens, UniProt P51617)
Sequence of Interleukin-1 receptor-associated kinase 1 (P51617 whole entry): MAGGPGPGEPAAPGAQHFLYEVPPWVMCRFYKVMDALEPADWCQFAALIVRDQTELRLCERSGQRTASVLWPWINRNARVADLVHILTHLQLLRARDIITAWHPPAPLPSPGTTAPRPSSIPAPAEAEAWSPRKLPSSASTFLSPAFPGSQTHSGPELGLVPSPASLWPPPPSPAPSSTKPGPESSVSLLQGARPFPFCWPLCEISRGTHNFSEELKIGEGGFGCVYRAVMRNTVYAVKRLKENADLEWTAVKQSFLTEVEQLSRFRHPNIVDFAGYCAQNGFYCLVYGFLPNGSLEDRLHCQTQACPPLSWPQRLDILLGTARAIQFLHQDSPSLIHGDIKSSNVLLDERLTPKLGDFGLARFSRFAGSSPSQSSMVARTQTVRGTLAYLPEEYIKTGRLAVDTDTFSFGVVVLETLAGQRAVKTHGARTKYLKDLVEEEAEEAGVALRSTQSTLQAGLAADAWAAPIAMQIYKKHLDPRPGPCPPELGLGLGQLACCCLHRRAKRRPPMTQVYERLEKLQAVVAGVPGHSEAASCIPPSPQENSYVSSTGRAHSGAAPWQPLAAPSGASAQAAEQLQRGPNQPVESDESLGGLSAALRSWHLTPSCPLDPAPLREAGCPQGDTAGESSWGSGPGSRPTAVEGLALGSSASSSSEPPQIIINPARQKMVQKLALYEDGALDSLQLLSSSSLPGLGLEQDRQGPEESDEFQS

[5] = molecular target: T2, Interleukin-1 receptor-associated kinase 3 (Homo sapiens, UniProt Q9Y616)
T2 sequence (Q9Y616 whole entry): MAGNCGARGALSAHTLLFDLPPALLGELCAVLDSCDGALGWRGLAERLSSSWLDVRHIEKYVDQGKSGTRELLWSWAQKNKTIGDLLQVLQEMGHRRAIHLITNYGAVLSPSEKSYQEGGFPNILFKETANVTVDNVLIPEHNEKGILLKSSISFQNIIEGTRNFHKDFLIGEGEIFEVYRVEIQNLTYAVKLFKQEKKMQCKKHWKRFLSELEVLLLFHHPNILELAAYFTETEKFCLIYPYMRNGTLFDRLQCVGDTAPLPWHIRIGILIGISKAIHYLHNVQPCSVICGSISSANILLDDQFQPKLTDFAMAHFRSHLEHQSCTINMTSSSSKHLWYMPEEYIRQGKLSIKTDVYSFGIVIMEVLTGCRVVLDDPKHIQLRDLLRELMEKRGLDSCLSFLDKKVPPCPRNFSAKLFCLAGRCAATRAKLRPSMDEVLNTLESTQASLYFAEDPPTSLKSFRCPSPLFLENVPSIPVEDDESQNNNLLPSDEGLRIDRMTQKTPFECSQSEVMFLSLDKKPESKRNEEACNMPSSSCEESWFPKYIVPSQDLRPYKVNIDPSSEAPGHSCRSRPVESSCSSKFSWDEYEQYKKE

[6] = molecular target: T3, Dual specificity mitogen-activated protein kinase kinase 6 (Homo sapiens, UniProt P52564)
T3 sequence (P52564 whole entry): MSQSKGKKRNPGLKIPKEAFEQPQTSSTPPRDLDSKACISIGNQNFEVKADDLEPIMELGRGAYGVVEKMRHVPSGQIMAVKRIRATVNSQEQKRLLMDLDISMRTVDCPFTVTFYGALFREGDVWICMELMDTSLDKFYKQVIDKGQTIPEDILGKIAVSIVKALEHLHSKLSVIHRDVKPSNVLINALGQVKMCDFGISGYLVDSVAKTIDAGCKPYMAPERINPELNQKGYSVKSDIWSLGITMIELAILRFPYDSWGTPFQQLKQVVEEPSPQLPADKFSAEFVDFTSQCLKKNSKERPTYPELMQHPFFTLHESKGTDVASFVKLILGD

[7] = molecular target: Serine/threonine-protein kinase N1 (Homo sapiens, UniProt Q16512)
[8] = molecular target: Protein-tyrosine kinase 2-beta (Homo sapiens, UniProt Q14289)
Sequence of Protein-tyrosine kinase 2-beta (Q14289 whole entry): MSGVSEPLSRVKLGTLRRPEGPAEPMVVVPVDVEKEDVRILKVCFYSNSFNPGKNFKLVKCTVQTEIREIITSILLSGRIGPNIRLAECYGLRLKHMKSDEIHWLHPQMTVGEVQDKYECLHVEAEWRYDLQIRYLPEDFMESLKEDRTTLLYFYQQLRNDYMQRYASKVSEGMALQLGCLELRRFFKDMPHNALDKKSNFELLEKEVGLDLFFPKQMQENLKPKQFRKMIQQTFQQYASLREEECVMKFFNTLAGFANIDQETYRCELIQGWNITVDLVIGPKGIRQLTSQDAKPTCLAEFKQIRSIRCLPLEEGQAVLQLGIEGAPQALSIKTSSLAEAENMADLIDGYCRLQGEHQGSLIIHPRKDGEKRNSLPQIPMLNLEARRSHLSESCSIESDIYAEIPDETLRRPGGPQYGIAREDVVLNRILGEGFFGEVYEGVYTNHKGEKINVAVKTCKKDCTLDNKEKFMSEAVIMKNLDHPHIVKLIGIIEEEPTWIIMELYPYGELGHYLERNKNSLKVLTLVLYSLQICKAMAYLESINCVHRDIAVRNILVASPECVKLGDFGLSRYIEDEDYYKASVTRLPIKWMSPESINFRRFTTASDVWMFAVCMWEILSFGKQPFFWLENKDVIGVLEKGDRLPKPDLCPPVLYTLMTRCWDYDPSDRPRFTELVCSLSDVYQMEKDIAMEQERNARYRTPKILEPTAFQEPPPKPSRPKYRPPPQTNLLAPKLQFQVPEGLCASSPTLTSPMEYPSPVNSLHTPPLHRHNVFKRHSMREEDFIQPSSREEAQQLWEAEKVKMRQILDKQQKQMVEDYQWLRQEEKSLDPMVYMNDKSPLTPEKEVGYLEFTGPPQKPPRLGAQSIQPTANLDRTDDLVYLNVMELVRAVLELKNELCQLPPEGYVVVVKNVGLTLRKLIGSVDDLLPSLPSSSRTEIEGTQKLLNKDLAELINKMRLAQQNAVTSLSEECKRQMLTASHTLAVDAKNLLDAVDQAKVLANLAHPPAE

[9] = molecular target: Ras-related protein Rab-6A (Homo sapiens, UniProt P20340)
Sequence of Ras-related protein Rab-6A (P20340 whole entry): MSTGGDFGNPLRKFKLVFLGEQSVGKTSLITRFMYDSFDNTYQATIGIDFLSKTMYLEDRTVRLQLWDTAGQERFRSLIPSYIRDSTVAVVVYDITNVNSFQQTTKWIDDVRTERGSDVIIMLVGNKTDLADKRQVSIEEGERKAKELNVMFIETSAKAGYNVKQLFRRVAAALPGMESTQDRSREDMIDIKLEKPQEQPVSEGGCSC

[10] = molecular target: Structural maintenance of chromosomes protein 2 (Homo sapiens, UniProt O95347)
Sequence of Structural maintenance of chromosomes protein 2 (O95347 whole entry): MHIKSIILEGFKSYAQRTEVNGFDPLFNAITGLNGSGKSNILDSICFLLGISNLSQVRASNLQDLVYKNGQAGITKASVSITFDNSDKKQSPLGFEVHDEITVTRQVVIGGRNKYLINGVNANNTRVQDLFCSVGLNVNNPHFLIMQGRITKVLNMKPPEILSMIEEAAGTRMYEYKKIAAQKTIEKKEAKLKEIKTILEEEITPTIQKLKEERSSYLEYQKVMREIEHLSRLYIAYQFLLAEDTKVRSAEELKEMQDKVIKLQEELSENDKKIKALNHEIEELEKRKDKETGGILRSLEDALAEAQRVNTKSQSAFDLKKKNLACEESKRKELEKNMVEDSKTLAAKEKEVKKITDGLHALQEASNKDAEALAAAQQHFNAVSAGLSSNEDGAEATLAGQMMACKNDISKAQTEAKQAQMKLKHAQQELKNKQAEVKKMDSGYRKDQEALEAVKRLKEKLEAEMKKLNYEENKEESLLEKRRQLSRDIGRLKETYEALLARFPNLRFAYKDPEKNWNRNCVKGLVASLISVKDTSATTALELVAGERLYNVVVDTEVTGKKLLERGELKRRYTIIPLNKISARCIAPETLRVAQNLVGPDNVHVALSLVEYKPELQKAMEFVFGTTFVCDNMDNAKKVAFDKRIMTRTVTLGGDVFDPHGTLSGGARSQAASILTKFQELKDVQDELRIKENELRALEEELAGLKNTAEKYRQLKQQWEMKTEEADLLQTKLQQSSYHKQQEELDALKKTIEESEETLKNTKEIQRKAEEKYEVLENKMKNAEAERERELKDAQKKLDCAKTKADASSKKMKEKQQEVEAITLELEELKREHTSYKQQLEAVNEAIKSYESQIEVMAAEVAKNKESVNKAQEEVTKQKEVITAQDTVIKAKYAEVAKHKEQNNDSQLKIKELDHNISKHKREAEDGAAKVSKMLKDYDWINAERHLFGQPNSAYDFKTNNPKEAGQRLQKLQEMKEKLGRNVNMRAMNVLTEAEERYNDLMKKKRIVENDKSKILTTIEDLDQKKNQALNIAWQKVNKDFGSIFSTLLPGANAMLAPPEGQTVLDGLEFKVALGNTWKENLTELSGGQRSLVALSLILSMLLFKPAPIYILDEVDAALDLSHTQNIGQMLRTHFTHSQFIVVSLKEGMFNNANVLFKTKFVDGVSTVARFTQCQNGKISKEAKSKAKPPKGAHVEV

[11] = molecular target: Serine/threonine-protein kinase 26 (Homo sapiens, UniProt Q9P289)
[12] = molecular target: T4, Serine/threonine-protein kinase STK11 (Homo sapiens, UniProt Q15831)
T4 sequence (Q15831 whole entry): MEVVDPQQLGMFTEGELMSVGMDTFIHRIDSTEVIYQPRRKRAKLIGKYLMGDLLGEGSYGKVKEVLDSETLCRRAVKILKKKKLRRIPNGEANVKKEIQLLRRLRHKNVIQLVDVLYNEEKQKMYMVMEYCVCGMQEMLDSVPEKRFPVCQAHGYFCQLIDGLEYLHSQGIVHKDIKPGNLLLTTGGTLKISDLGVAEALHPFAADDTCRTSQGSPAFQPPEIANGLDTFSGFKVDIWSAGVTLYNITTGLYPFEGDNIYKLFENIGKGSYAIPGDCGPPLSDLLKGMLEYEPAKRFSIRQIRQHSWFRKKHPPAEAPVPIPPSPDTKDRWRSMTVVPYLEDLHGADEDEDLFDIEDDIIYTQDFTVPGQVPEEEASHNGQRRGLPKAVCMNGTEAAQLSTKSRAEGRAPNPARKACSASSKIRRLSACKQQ
Also: in the data inactive means no Kd found up to 30 µM.

Sequence of Cyclin-dependent kinase 13 (Q14004 whole entry): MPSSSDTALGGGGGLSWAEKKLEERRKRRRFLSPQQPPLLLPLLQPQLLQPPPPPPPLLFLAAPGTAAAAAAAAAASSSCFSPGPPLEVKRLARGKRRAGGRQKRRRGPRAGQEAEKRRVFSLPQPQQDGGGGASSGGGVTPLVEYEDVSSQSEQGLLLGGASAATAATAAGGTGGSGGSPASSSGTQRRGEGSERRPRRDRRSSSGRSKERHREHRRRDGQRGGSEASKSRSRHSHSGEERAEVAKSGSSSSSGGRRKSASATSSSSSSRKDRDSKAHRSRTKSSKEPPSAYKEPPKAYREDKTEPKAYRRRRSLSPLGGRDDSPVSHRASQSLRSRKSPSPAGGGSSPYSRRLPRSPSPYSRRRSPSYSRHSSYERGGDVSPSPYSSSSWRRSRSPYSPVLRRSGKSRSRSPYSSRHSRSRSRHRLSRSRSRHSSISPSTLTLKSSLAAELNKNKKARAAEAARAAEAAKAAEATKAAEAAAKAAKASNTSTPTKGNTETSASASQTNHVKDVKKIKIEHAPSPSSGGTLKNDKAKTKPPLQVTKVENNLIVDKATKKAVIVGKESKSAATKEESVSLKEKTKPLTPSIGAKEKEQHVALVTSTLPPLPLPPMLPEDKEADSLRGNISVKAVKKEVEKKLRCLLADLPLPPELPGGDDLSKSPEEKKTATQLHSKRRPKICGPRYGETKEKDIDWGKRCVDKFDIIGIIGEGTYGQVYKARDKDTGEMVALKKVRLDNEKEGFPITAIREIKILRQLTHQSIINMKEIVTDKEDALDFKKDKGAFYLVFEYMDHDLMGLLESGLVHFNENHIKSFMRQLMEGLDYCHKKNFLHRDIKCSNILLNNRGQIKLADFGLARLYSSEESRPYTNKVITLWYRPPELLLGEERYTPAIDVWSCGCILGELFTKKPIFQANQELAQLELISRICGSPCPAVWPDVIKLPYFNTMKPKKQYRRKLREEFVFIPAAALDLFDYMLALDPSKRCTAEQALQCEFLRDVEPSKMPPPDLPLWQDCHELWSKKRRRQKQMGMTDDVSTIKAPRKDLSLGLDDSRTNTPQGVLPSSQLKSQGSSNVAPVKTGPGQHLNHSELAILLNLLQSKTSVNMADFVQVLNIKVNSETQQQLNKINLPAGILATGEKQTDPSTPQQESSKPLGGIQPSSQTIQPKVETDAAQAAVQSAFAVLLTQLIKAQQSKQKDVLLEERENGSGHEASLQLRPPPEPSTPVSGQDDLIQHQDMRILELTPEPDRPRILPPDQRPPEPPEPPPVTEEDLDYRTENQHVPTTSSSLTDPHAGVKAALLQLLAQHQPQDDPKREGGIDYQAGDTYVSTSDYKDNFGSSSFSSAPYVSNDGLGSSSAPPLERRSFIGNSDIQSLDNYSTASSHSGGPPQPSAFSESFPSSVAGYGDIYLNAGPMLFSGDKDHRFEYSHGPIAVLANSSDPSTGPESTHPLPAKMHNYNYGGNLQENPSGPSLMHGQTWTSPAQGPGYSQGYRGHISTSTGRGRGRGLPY

Structure (SMILES) | Kd [1] | Kd [2] | Kd (Ephrin type-A receptor 2) | Kd (Ephrin type-B receptor 4) | Kd [3] | Kd [4] | Kd [5] | Kd [6] | Kd [7] | Kd [8] | Kd [9] | Kd [10] | Kd [11] | Kd [12]
Cc1c(NC(=O)OC[C@@H]2COCCN2)cn2ncnc(Nc3ccc4c(cnn4Cc4cccc(F)c4)c3)c12 [AC-480] | > 30 µM (inactive) | > 30 µM (inactive) | > 30 µM (inactive) | > 30 µM (inactive) | > 30 µM (inactive) | > 30 µM (inactive) | > 30 µM (inactive) | > 30 µM (inactive) | > 30 µM (inactive) | > 30 µM (inactive) | > 30 µM (inactive) | > 30 µM (inactive) | > 30 µM (inactive) | –
CN(C)C/C=C/C(=O)Nc1cc2c(Nc3ccc(F)c(Cl)c3)ncnc2cc1O[C@H]1CCOC1 [AFATINIB] | – | – | – | – | > 30 µM (inactive) | – | – | – | – | – | > 30 µM (inactive) | > 30 µM (inactive) | – | –
COc1ccc(-c2ccc3ncc4c(c3c2)n(-c2ccc(N3CCNCC3)c(C(F)(F)F)c2)c(=O)n4C)cn1 [BGT-226 FREE BASE] | > 30 µM (inactive) | > 30 µM (inactive) | > 30 µM (inactive) | > 30 µM (inactive) | > 30 µM (inactive) | > 30 µM (inactive) | > 30 µM (inactive) | > 30 µM (inactive) | > 30 µM (inactive) | > 30 µM (inactive) | > 30 µM (inactive) | > 30 µM (inactive) | > 30 µM (inactive) | –
C[C@@]1(C(=O)Nc2ccc(F)nc2)CCCN1c1nc(Nc2cc(C3CC3)n[nH]2)c2cccn2n1 [BMS-754807] | – | – | – | – | > 30 µM (inactive) | – | – | – | – | – | > 30 µM (inactive) | > 30 µM (inactive) | – | –
CCOc1ccn(-c2ccc(F)cc2)c(=O)c1C(=O)Nc1ccc(Oc2ccnc(N)c2Cl)c(F)c1 [BMS-777607] | – | > 30 µM (inactive) | > 30 µM (inactive) | > 30 µM (inactive) | > 30 µM (inactive) | – | – | > 30 µM (inactive) | > 30 µM (inactive) | > 30 µM (inactive) | > 30 µM (inactive) | > 30 µM (inactive) | > 30 µM (inactive) | > 30 µM (inactive)
COc1cc2c(Oc3ccc4[nH]c(C)cc4c3F)ncnc2cc1OCCCN1CCCC1 [CEDIRANIB] | – | – | – | – | > 30 µM (inactive) | – | – | – | – | – | > 30 µM (inactive) | > 30 µM (inactive) | – | –
CC1(COc2ccc3c(c2)ncn3-c2ccc3cccc(N4CCC(N)CC4)c3n2)COC1 [CRENOLANIB] | > 30 µM (inactive) | > 30 µM (inactive) | > 30 µM (inactive) | > 30 µM (inactive) | 2.57 µM (active) | – | 1.51 µM (active) | > 30 µM (inactive) | 0.165 µM (active) | > 30 µM (inactive) | > 30 µM (inactive) | > 30 µM (inactive) | 0.013 µM (active) | > 30 µM (inactive)
Cn1c(=O)n(-c2ccc(C(C)(C)C#N)cc2)c2c3cc(-c4cnc5ccccc5c4)ccc3ncc21 [DACTOLISIB] | > 30 µM (inactive) | > 30 µM (inactive) | > 30 µM (inactive) | > 30 µM (inactive) | > 30 µM (inactive) | – | > 30 µM (inactive) | > 30 µM (inactive) | > 30 µM (inactive) | > 30 µM (inactive) | > 30 µM (inactive) | > 30 µM (inactive) | > 30 µM (inactive) | > 30 µM (inactive)
O=S(=O)(c1cccc2cnccc12)N1CCCNCC1 [FASUDIL] | > 30 µM (inactive) | – | – | > 30 µM (inactive) | > 30 µM (inactive) | > 30 µM (inactive) | – | > 30 µM (inactive) | 0.841 µM (active) | > 30 µM (inactive) | > 30 µM (inactive) | > 30 µM (inactive) | > 30 µM (inactive) | > 30 µM (inactive)
C[C@]1(O)C[C@@H](c2nc(-c3ccc4ccc(-c5ccccc5)nc4c3)c3c(N)nccn32)C1 [LINSITINIB] | > 30 µM (inactive) | > 30 µM (inactive) | – | > 30 µM (inactive) | > 30 µM (inactive) | – | > 30 µM (inactive) | > 30 µM (inactive) | > 30 µM (inactive) | > 30 µM (inactive) | > 30 µM (inactive) | > 30 µM (inactive) | > 30 µM (inactive) | > 30 µM (inactive)
CC1(C)CNc2cc(NC(=O)c3cccnc3NCc3ccncc3)ccc21 [MOTESANIB] | – | – | – | – | > 30 µM (inactive) | – | – | – | – | – | > 30 µM (inactive) | > 30 µM (inactive) | – | –
CN(c1ncccc1CNc1nc(Nc2ccc3c(c2)CC(=O)N3)ncc1C(F)(F)F)S(C)(=O)=O [PF-00562271] | > 30 µM (inactive) | 4.5 µM (active) | – | > 30 µM (inactive) | > 30 µM (inactive) | – | > 30 µM (inactive) | – | 7.96 µM (active) | – | > 30 µM (inactive) | > 30 µM (inactive) | 0.012 µM | 0.626 µM (active)
CC(C)CC(=O)Nc1[nH]nc2c1CN(C(=O)C1CCN(C)CC1)C2(C)C [PHA-793887] | > 30 µM (inactive) | 3.58 µM (active) | > 30 µM (inactive) | > 30 µM (inactive) | > 30 µM (inactive) | – | > 30 µM (inactive) | – | – | > 30 µM (inactive) | > 30 µM (inactive) | > 30 µM (inactive) | 0.175 µM | –
Cn1cnc2c(F)c(Nc3ccc(Br)cc3Cl)c(C(=O)NOCCO)cc21 [SELUMETINIB] | – | – | – | – | > 30 µM (inactive) | – | – | – | – | – | > 30 µM (inactive) | 0.209 µM | – | –
COc1cc2c(N3CCN(C(=O)Nc4ccc(OC(C)C)cc4)CC3)ncnc2cc1OCCCN1CCCCC1 [TANDUTINIB] | – | – | – | – | > 30 µM (inactive) | – | – | – | – | – | > 30 µM (inactive) | > 30 µM (inactive) | – | –
